Experiments:
corn = experiment: Test A pre-/postemergence herbicide test; type: in vivo, Zea mays; details: Postemergence
How it was run: (§1)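 Seeds sown in loam soil/sand blend received a preemergence directed soil spray of test chemical in non-phytotoxic solvent with surfactant; postemergence plants (2–10 cm, one- to two-leaf stage) were sprayed with the same formulation. After about 10 days in greenhouse, injury was rated visually versus untreated controls, 0 (no effect) to 100 (complete control).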

pigweed = experiment: Test A pre-/postemergence herbicide test; type: in vivo, Amaranthus retroflexus
How it was run: as §1

barnyardgrass [1] = experiment: Test B flooded paddy test; type: in vivo, Echinochloa crus-galli; details: Flood, scale of 0 to 100 where 0 is no effect and 100 is complete control
How it was run: (§2)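 In-water application to pots flooded 3 cm deep, plants at 2-leaf stage. Held in greenhouse 13–15 days at constant flood depth. Scored 0–100 by eye against controls.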

blackgrass = experiment: Test A postemergence herbicide test; type: in vivo, Alopecurus myosuroides
How it was run: (§3)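 Blackgrass and galium grown in pots of loam soil–sand blend, treated postemergence at 2–10 cm height, one- to two-leaf stage. Plants kept in greenhouse ~10 days, then visually rated for injury against untreated controls on a 0–100 scale (0 no effect, 100 complete control).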

ryegrass, Italian = experiment: Test A pre-/postemergence herbicide test; type: in vivo, Lolium multiflorum
How it was run: as §1

ragweed = experiment: Test A pre-/postemergence herbicide test; type: in vivo, Ambrosia elatior
How it was run: as §1

rice = experiment: Test B flooded paddy test; type: in vivo, Oryza sativa; details: Flood, scale of 0 to 100 where 0 is no effect and 100 is complete control
How it was run: as §2

sedge, umbrella = experiment: Test B flooded paddy test; type: in vivo, Cyperus difformis; details: Flood, scale of 0 to 100 where 0 is no effect and 100 is complete control
How it was run: as §2

giant foxtail = experiment: Test A pre-/postemergence herbicide test; type: in vivo, Setaria faberii
How it was run: as §1

ducksalad = experiment: Test B flooded paddy test; type: in vivo, Heteranthera limosa; details: Flood, scale of 0 to 100 where 0 is no effect and 100 is complete control
How it was run: as §2

galium = experiment: Test A postemergence herbicide test; type: in vivo, Galium aparine
How it was run: as §3

wheat = experiment: Test A pre-/postemergence herbicide test; type: in vivo, Triticum aestivum; details: Postemergence
How it was run: as §1

barnyardgrass [2] = experiment: Test A pre-/postemergence herbicide test; type: in vivo, Echinochloa crus-galli
How it was run: as §1

kochia = experiment: Test A pre-/postemergence herbicide test; type: in vivo, Kochia scoparia
How it was run: as §1

[3] = 125 g ai/ha, 0 to 100 scale, 0 is no effect, 100 is complete control
[4] = 125 g ai/ha, visual rating, 0 to 100 scale, 0 no effect, 100 complete control, approximately 10 days, preemergence
[5] = Postemergence, 125 g ai/ha, 0 to 100 scale, 0 is no effect, 100 is complete control
[6] = preemergence, 500 g ai/ha, 0 to 100 scale, 0 is no effect and 100 is complete control
[7] = 125 g ai/ha, visual rating on 0 to 100 scale (0 no effect, 100 complete control), approx. 10 days
[8] = 500 g ai/ha, 0 to 100 scale (0 no effect, 100 complete control)
[9] = Postemergence, 125 g ai/ha, visual rating on 0 to 100 scale (0 no effect, 100 complete control), approx. 10 days
[10] = Postemergence, 500 g ai/ha, 0 to 100 scale (0 no effect, 100 complete control)
[11] = Preemergence, 125 g ai/ha, 0 to 100 scale where 0 is no effect and 100 is complete control

COc1ccc(C2CNC(=O)C2C(=O)Nc2ccccc2F)cc1C(F)(F)F (racemic) [Compound 209]
Plant response rating, Corn (corn; [3]): 0
Corn plant response rating (0 to 100 scale, 0 is no effect, 100 is complete control) (corn; 500 g ai/ha): 0
Plant response rating, Pigweed (pigweed; [4]): 0
Plant response rating, Pigweed (pigweed; [5]): 0
Pigweed plant response rating (0 to 100 scale, 0 is no effect, 100 is complete control) (pigweed; Postemergence, 500 g ai/ha): 0
Plant response rating, Pigweed (pigweed; [6]): 20
Plant response rating, Barnyardgrass (barnyardgrass [1]; 1000 g ai/ha): 45
Plant response rating, Blackgrass (blackgrass; [3]): 0
Blackgrass plant response rating (0 to 100 scale, 0 is no effect, 100 is complete control) (blackgrass; 500 g ai/ha): 20
Plant response rating, Ryegrass, Italian (ryegrass, Italian; [4]): 0
Plant response rating, Ryegrass, Italian (ryegrass, Italian; [5]): 0
Ryegrass, Italian plant response rating (0 to 100 scale, 0 is no effect, 100 is complete control) (ryegrass, Italian; Postemergence, 500 g ai/ha): 20
Plant response rating, Ryegrass, Italian (ryegrass, Italian; [6]): 20
Plant response rating, Ragweed (ragweed; [4]): 0
Plant response rating, Ragweed (ragweed; [5]): 0
Ragweed plant response rating (0 to 100 scale, 0 is no effect, 100 is complete control) (ragweed; Postemergence, 500 g ai/ha): 0
Plant response rating, Ragweed (ragweed; [6]): 0
Plant response rating, Rice (rice; 1000 g ai/ha): 0
Plant response rating, Sedge, Umbrella (sedge, umbrella; 1000 g ai/ha): 0
Plant response rating, Foxtail, Giant (giant foxtail; [4]): 50
Plant response rating, Foxtail, Giant (giant foxtail; [5]): 40
Foxtail, Giant plant response rating (0 to 100 scale, 0 is no effect, 100 is complete control) (giant foxtail; Postemergence, 500 g ai/ha): 70
Plant response rating, Foxtail, Giant (giant foxtail; [6]): 90
Plant response rating, Ducksalad (ducksalad; 1000 g ai/ha): 95
Plant response rating, Galium (galium; [3]): 0
Galium plant response rating (0 to 100 scale, 0 is no effect, 100 is complete control) (galium; 500 g ai/ha): 0
Plant response rating, Wheat (wheat; [3]): 0
Wheat plant response rating (0 to 100 scale, 0 is no effect, 100 is complete control) (wheat; 500 g ai/ha): 0
Plant response rating, Barnyardgrass (barnyardgrass [2]; [4]): 30
Plant response rating, Barnyardgrass (barnyardgrass [2]; [5]): 60
Barnyardgrass plant response rating (0 to 100 scale, 0 is no effect, 100 is complete control) (barnyardgrass [2]; Postemergence, 500 g ai/ha): 80
Plant response rating, Barnyardgrass (barnyardgrass [2]; [6]): 60
Plant response rating, Kochia (kochia; [4]): 0
Plant response rating, Kochia (kochia; [5]): 0
Kochia plant response rating (0 to 100 scale, 0 is no effect, 100 is complete control) (kochia; Postemergence, 500 g ai/ha): 0
Plant response rating, Kochia (kochia; [6]): 20

O=C1NCC(c2ccc(Cl)c(Cl)c2)C1C(=O)Nc1ccc(F)c(F)c1F (stereo not drawn) [Compound 286]
Plant response rating, Corn (corn; [7]): 0
Plant response rating, Corn (corn; [8]): 0
Plant response rating, Pigweed (pigweed; [9]): 0
Plant response rating, Pigweed (pigweed; [10]): 0
Plant response rating, Pigweed (pigweed; [11]): 20
Plant response rating, Pigweed (pigweed; [6]): 30
Plant response rating, Barnyardgrass (barnyardgrass [1]; 500 g ai/ha): 15
Plant response rating, Blackgrass (blackgrass; [7]): 0
Plant response rating, Blackgrass (blackgrass; [8]): 0
Plant response rating, Ryegrass, Italian (ryegrass, Italian; [9]): 0
Plant response rating, Ryegrass, Italian (ryegrass, Italian; [10]): 20
Plant response rating, Ryegrass, Italian (ryegrass, Italian; [11]): 0
Ryegrass, Italian plant response rating (ryegrass, Italian; Preemergence, 500 g ai/ha, visual rating on 0 to 100 scale (0 no effect, 100 complete control)): 20
Plant response rating, Ragweed (ragweed; [9]): 0
Plant response rating, Ragweed (ragweed; [10]): 0
Plant response rating, Ragweed (ragweed; [11]): 0
Plant response rating, Ragweed (ragweed; [6]): 0
Plant response rating, Rice (rice; 500 g ai/ha): 10
Plant response rating, Sedge, Umbrella (sedge, umbrella; 500 g ai/ha): 0
Plant response rating, Foxtail, Giant (giant foxtail; [9]): 60
Plant response rating, Foxtail, Giant (giant foxtail; [10]): 70
Plant response rating, Foxtail, Giant (giant foxtail; [11]): 80
Plant response rating, Foxtail, Giant (giant foxtail; [6]): 80
Plant response rating, Ducksalad (ducksalad; 500 g ai/ha): 75
Plant response rating, Galium (galium; [7]): 0
Plant response rating, Galium (galium; [8]): 0
Plant response rating, Wheat (wheat; [7]): 0
Plant response rating, Wheat (wheat; [8]): 0
Plant response rating, Barnyardgrass (barnyardgrass [2]; [9]): 60
Plant response rating, Barnyardgrass (barnyardgrass [2]; [10]): 60
Plant response rating, Barnyardgrass (barnyardgrass [2]; [11]): 60
Plant response rating, Barnyardgrass (barnyardgrass [2]; [6]): 60
Plant response rating, Kochia (kochia; [9]): 0
Plant response rating, Kochia (kochia; [10]): 20
Plant response rating, Kochia (kochia; [11]): 30
Plant response rating, Kochia (kochia; [6]): 40
